How the values were obtained:
GFP-K-Ras = assay: Live-cell imaging of GFP-K-Ras translocation from plasma membrane to internal membranes; assay type: cell-based, human; conditions: for effect of inhibitor pretreatment on stimulated K-Ras translocation: 100 nM Ro 31-8220 or 15 μg/ml W-13, 10 min prior to stimulation with bryostatin-1 or PMA+Iono
Experimental: COS-1, HeLa, and MDCK cells were maintained in 5% CO2 in Dulbecco's Modified Eagle Medium (“DMEM”) supplemented with 4 mM 1-glutamine, 1.5 g/L sodium bicarbonate, 4.5 g/L glucose, and 10% fetal bovine serum (“FBS”) (Cellgro®). MDCK cells stably expressing GFP-K-Ras or GFP-H-Ras were selected in G418 and sorted by FACS to yield cell lines expressing relatively low levels of the fluorescent Ras proteins (1-3 fold endogenous by immunoblots). NIH 3T3 cells were maintained in 10% CO2 in DMEM supplemented with 4 mM 1-glutamine, 1.5 g/L sodium bicarbonate, 4.5 g/L glucose, and 10% calf serum (Colorado Serum Co., Denver, Colo.). Jurkat T cells were maintained in 5% CO2 in RPMI containing 10% FBS. Cells to be examined by fluorescence microscopy were seeded at 2×10^5 per plate into 35 mm dishes containing a glass coverslip-sealed 15 mm cutout (MatTek, Ashland, Mass.) and transfected the next day using Lipofectamine (Invitrogen, Carlsbad, Calif.; NIH 3T3), Lipofectamine 2000 (Invitrogen, Carlsbad, Calif.; COS-1, HeLa, MDCK), or DMRIE (Invitrogen, Carlsbad, Calif.; Jurkat), according to the manufacturers' instructions. To ensure co-transfection of untagged cDNAs and fluorescent constructs, a DNA ratio of at least 5:1 (untagged:fluorescent) was used.
(§1) Cells were stimulated while under continuous observation by adding 100 nM bryostatin-1 (Biomol), 100 nM PMA with or without 500 ng/ml lonomycin, or 5 ng/ml anti-CD3 to 35 mm MatTek plates maintained at 37° C. using a PDMI-2 microincubator (Harvard Apparatus, Holliston, Mass.). Treatment of cells with 100 nM Ro 31-8220 (Biomol, Plymouth Meeting, Pa.) or 15 μg/ml W-13 Hydrochloride (EMD Biosciences, San Diego, Calif.) was initiated 10 min prior to stimulations. Where indicated, 25 pM MitoTracker Red CMXRos (Molecular Probes, Eugene, Oreg.) was added 10 min prior to stimulation. Living cells were imaged with a Zeiss 510 inverted laser scanning confocal microscope (“LSM”). A minimum of five […] Z slices were acquired for each cell at each time point and representative images were chosen to display both plasma membrane and endomembranes. Fluorescence resonance energy transfer (“FRET”) on mitochondria between CFP-K-Ras and YFP-Bcl-XL was detected by bleaching the acceptor (YFP-Bcl-XL) on individual mitochondria and measuring the increase in CFP emission intensity as quenching was released. FRET efficiency was calculated as [ICFP(post-bleach)−ICFP(pre-bleach)]/ICFP(post-bleach). TIFF images were processed with Adobe Photoshop 7.0.

K-Ras = assay: Metabolic labeling with [32P]orthophosphate of COS-1 cells expressing K-Ras constructs; assay type: cell-based, human; conditions: 100 nM bryostatin-1 for 20 min
Experimental: Twenty-four hours after transfection with various K-Ras constructs, COS-1 cells were pre-incubated at 37° C. for 4 hours in phosphate-free DMEM containing 10% dialyzed fetal calf serum (“FCS”). The medium was then replaced with phosphate-free DMEM containing 2 mCi of [^32P]orthophosphate. After 6 hours of labeling, the cells were stimulated with 100 nM bryostatin-1 for 20 min at 37° C. Jurkat cells were rinsed three times with prewarmed phosphate-free DMEM, and then incubated at 37° C. for 6 hours in phosphate-free DMEM containing 10% FBS (3:1 undialyzed:dialyzed) and 0.5 mCi/ml [^32P]orthophosphate. After incubation, the ^32P-labeled cells were rinsed with prewarmed phosphate-free DMEM, and then stimulated with either anti-CD3 (10 μg/ml) or vehicle control for 30 min at 37° C. Both types of cells were then lysed in RIPA buffer containing protease inhibitors (Roche, Basel, Switzerland) and 10 μM microcystin and 5 mM NaF. K-Ras was immunoprecipitated using agarose conjugated with Y13-259 monoclonal anti-Ras antibody (Santa Cruz Biotechnology, Inc., Santa Cruz, Calif.), analyzed by SDS-PAGE and visualized by phosphorimager.

K-Ras12V and Bcl-XL = assay: Colocalization and FRET between K-Ras12V and Bcl-XL on mitochondria; assay type: cell-based, human
Experimental: as §1

endogenous Ras = assay: Anti-Ras immunogold electron microscopy of Jurkat T cells; assay type: cell-based
Experimental: Jurkat cells (in suspension) were treated with 100 nM bryostatin-1 or vehicle (dimethyl sulfoxide (“DMSO”)) for 30 minutes at 37° C. and then fixed with 2% formaldehyde and 0.2% glutaraldehyde in 0.1 M sodium phosphate buffer, pH 7.4. After washing in buffer, the cells were pelleted by centrifugation, embedded in 10% gelatin, cooled in ice, and cut into 1-mm^3 blocks in the cold room. The blocks were infused with 2.3 M sucrose at 4° C. for at least 2 hours, frozen in liquid nitrogen, and stored until cryo-ultramicrotomy. 100-nm-thick section were cut at −120° C. using an Ultracut T/FCS (Leica) equipped with an antistatic device (Diatome) and a diamond knife (Drukker). Ultrathin sections were picked up in a mix of 1.8% methylcellulose and 2.3 M sucrose (1:1) (Liou et al., “Improving Structural Integrity of Cryosections for Immunogold Labeling,” Histochemistry and Cell Biology 106:41-58 (1996), which is hereby incorporated by reference in its entirety). Cryosections were collected on formvar-coated copper grids and incubated with Ras10 monoclonal antibody (Upstate, Charlottesville, Va.) followed by rabbit anti-mouse antibodies and then protein A gold (Slot et al., “A New Method of Preparing Gold Probes for Multiple-Labeling Cytochemistry,” Eur. J. Cell. Biol. 38:87-93 (1985), which is hereby incorporated by reference in its entirety). After labeling, the sections were treated with 1% glutaraldehyde, counterstained with uranyl acetate, and embedded in methyl cellulose-uranyl acetate (Slot et al., “Immuno-Localization of the Insulin Regulatable Glucose Transporter in Brown Adipose Tissue of the Rat,” J. Cell. Biol. 113:123-135 (1991), which is hereby incorporated by reference in its entirety). Images were acquired with a JEOL electron microscope JEM-1200 EX II at 80 kV.

[1] = system: NIH3T3 cells transformed with K-Ras12V or K-Ras12V181A; assay: Apoptosis of K-Ras transformed fibroblasts; assay type: cell-based
From the text: To confirm that K-Ras12V phosphorylated on S181, like phosphomimetic K-Ras12V181E, is pro-apoptotic, the capacity of PKC agonists to induce apoptosis of K-Ras transformed fibroblasts was examined. […] Thus, the sensitization to PKC-mediated apoptosis afforded by K-Ras transformation can be attributed to phosphorylation at S181.

a variety of tumors = conditions: phase I and II trials, cited from earlier work
[2] = system: K-Ras12V-dependent tumors; assay: Tumor growth assay in nude mice; assay type: in vivo, athymic nude BALB/c mice; conditions: intraperitoneal 25 μg/kg daily for 3 days
Experimental: NIH 3T3 cells stably transfected as per the soft agar assays were injected (5×10^5 cells) subcutaneously into the flanks of 4-6 week old athymic nude BALB/c mice. After formation of palpable tumors, mice were treated daily for 3 days with intraperitoneal DMSO vehicle or bryostatin-1 (25 μg/kg). Tumor volume was measured daily and differences in growth rates were evaluated for statistical significance by ANOVA.

[3] = system: NIH 3T3 cells stably transfected with K-Ras12V or K-Ras12V181A; assay: Soft agar assay; assay type: cell-based; conditions: two weeks
Experimental: NIH 3T3 cells stably transfected with pCGN-hyg, or the same vector encoding K-Ras12V or K-Ras12V 181 A were plated as single cell suspensions (2×10^4 cells/35-mm well) in 0.4% agar over a bottom layer of 0.6% agar, both containing DMSO vehicle or various concentrations of bryostatin-1. After two weeks, the percentage of plated cells that formed colonies (>5 cell diameters across) was determined.

[4] = 100 nM bryostatin-1, living cells

## Cn1cc(C2=C(c3cn(CCCSC(=N)N)c4ccccc34)C(=O)NC2=O)c2ccccc21 [Ro 31-8220]
GFP-K-Ras
  effect of inhibitor pretreatment on stimulated K-Ras translocation: completely blocked

## NCCCCNS(=O)(=O)c1ccc2c(Cl)cccc2c1 [W-13]
GFP-K-Ras
  effect of inhibitor pretreatment on stimulated K-Ras translocation: had no effect

## CCC/C=C/C=C/C(=O)O[C@H]1/C(=C/C(=O)OC)C[C@H]2C[C@H]([C@@H](C)O)OC(=O)C[C@H](O)C[C@@H]3C[C@H](OC(C)=O)C(C)(C)[C@](O)(C[C@@H]4C/C(=C/C(=O)OC)C[C@H](/C=C/C(C)(C)[C@]1(O)O2)O4)O3 [bryostatin-1]
K-Ras
  phosphorylation of K-Ras (32P incorporation): induced phosphorylation
K-Ras12V and Bcl-XL; Cos-1 cell, 5 min after bryostatin-1
  FRET efficiency between YFP-K-Ras12V and CFP-Bcl-XL on treated mitochondria: 17±8%
K-Ras12V and Bcl-XL; after stimulation with PKC agonist
  colocalization of CFP-K-Ras12V with YFP-Bcl-XL on outer mitochondrial membrane: colocalized with YFP-Bcl-XL
Endogenous Ras; 100 nM bryostatin-1 30 min, untreated 6.4±0.5
  10 nm gold particles per area of cytoplasm (excluding plasma membrane): 31.0±1.1 gold particles/μm^2
Endogenous Ras; bryostatin-1 treated
  gold particles associated with mitochondria: 49%
  mitochondria associated gold particles located within 30 nm of the outer mitochondrial membrane: 81%
[1]
  induction of apoptosis in K-Ras12V versus K-Ras12V181A transformed cells: induced apoptosis to a much higher extent in cells transformed with K-Ras12V than those transformed with K-Ras12V181A
A variety of tumors; variety of tumors
  clinical efficacy: exhibited clinical efficacy
A variety of tumors
  toxicity: minimal toxicity
[2]
  growth of tumors established with K-Ras12V181A transformed fibroblasts: resistant
[2]; p<0.05, ANOVA
  growth of tumors established with K-Ras12V transformed fibroblasts: sensitive
[3]; K-Ras12V181A
  soft agar growth induced by K-Ras12V181A: insensitive
[3]; K-Ras12V
  K-Ras12V induced colony growth of fibroblasts in soft agar: inhibited
GFP-K-Ras; [4]
  onset of translocation of GFP-K-Ras from the plasma membrane to intracellular membranes: < 1 min
  time to maximal translocation of GFP-K-Ras from the plasma membrane to intracellular membranes: 3 min
GFP-K-Ras; COS-1 cells, GFP-K-Ras12V, 3 min treatment, 10 min washout
  reversibility of effect on K-Ras localization: reversible
GFP-K-Ras; MDCK cell lines stably expressing at endogenous levels, MitoTracker Red
  association of GFP-K-Ras / GFP-H-Ras with mitochondria: stimulated rapid association of GFP-K-Ras but not GFP-H-Ras with mitochondria

## C=C1[C@@H](O)[C@@H]2O[C@]3(CC[C@H](/C=C/[C@@H](C)[C@@H]4CC(C)=C[C@@]5(O[C@H](C[C@@](C)(O)C(=O)O)CC[C@H]5O)O4)O3)CC[C@H]2O[C@@H]1[C@@H](O)C[C@H](C)[C@H]1O[C@@]2(CCCCO2)CC[C@H]1C [okadaic acid]
GFP-K-Ras; 100 nM PMA with or without 500 ng/ml ionomycin, compared with bryostatin-1
  effect on GFP-K-Ras localization (translocation/internalization): induced partial internalization

Reference: patent US7767417B2, “Prenyl-electrostatic switch, and methods of use” (New York University, priority 2004, dated 2010)
